Several values for one entry are separate records, joined by “and”; a condition that tells them apart may be missing. Equal entries are not always repeated.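 Compound exposure: 48 hours, 5 concentrations, 96-well plates. The concentration for 50% growth inhibition is given as GI50. TGI: total growth inhibition.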
Assays:
Assay in all cases: NCI-60 cell line screen, 48 h
NCI-H460 lung = tested on: NCI-H460 lung
U251 CNS = tested on: U251 CNS
SK-MEL-28 melanoma = tested on: SK-MEL-28 melanoma
HCT-116 colon = tested on: HCT-116 colon
HL-60(TB) leukemia = tested on: HL-60(TB) leukemia
SK-MEL-5 melanoma = tested on: SK-MEL-5 melanoma
RXF 393 renal = tested on: RXF 393 renal
SF-295 CNS = tested on: SF-295 CNS
HOP-92 NSCLC = tested on: HOP-92 NSCLC
SK-OV-3 ovarian = tested on: SK-OV-3 ovarian

Row | SMILES | TGI (NCI-H460 lung) | TGI (U251 CNS) | TGI (SK-MEL-28 melanoma) | TGI (HCT-116 colon) | GI50 (HL-60(TB) leukemia) | TGI (SK-MEL-5 melanoma) | TGI (RXF 393 renal) | TGI (SF-295 CNS) | GI50 (HOP-92 NSCLC) | TGI (HOP-92 NSCLC) | TGI (SK-OV-3 ovarian) | GI50 (NCI-H460 lung) | GI50 (U251 CNS) | GI50 (HCT-116 colon) | GI50 (SK-MEL-5 melanoma) | GI50 (RXF 393 renal) | GI50 (SF-295 CNS) | GI50 (SK-OV-3 ovarian) | GI50 (SK-MEL-28 melanoma) | TGI (HL-60(TB) leukemia)
1 | COC1=Nc2ccccc2S(=O)(=O)C=C1 | 37.3 µM | 24.4 µM | 19.9 µM | 3.46 µM | 1950 nM | 24.5 µM | 8.69 µM | > 88.1 µM | 742 nM | 15.2 µM | > 100 µM |  |  |  |  |  |  |  |  | 
2 | CCCCn1sc(=O)n(Cc2ccc(CNC(=O)OCc3ccc4c(Br)cc(Br)c(O)c4n3)cc2)c1=O | > 100 µM | > 100 µM | > 100 µM | > 100 µM | 374 nM | 2.07 µM | > 100 µM | > 24.5 µM | 1410 nM | > 100 µM | > 100 µM | 395 nM | 659 nM | 344 nM | 0.55 µM | 470 nM | 4.09 µM | 1720 nM |  | 
3 | C#CCOc1cccc(Nc2ncnc3ccc(NC(=O)CCl)cc23)c1 | 3.08 µM | 8.23 µM | 27 µM | 5.25 µM | 1660 nM | 8.9 µM | 19 µM | 19.8 µM | 2900 nM | 16.9 µM | > 100 µM | 72.3 nM | 364 nM | 49.3 nM | 3.37 µM | 4470 nM | 2.29 µM | 2590 nM | 5.15 µM | 19.2 µM
4 | CC(=O)[O][Hg][c]1ccccc1 | 3.82 µM | 1.75 µM | 1.47 µM | 0.667 µM | 201 nM | 1.82 µM | 0.797 µM | 3.57 µM | 299 nM | 0.92 µM | 2.68 µM | 934 nM | 453 nM | 264 nM | 0.472 µM | 234 nM | 1.61 µM | 1370 nM | 0.383 µM | 0.487 µM
5 | CN(C)c1n/c(=N/c2ncn[nH]2)ss1 | > 100 µM | > 100 µM | > 100 µM | > 100 µM |  | > 100 µM | > 100 µM | > 100 µM |  | > 100 µM | > 100 µM |  |  |  |  |  |  |  |  | > 100 µM
6 | O=C(O)C1(Cc2cccc(Nc3nccs3)n2)CCC(Oc2cccc(Cl)c2F)CC1 (stereo unspecified) | 19.6 µM | > 54.8 µM | > 65.2 µM | 30.5 µM | 3430 nM | 28.7 µM | 12.8 µM | 27.9 µM | 13000 nM | 44.7 µM | 46 µM | 344 nM | 24400 nM | 640 nM | 14.8 µM | 48.8 nM | 1.31 µM | 12800 nM | 21.2 µM | > 67.3 µM
7 | COc1ccc(-c2cc(=O)c3c(O)cc(C)cc3o2)cc1OC | > 100 µM | > 100 µM | > 100 µM | > 100 µM |  | > 100 µM | > 100 µM | > 100 µM |  | > 100 µM | > 100 µM |  |  |  |  |  |  |  |  | > 100 µM
8 | C/C(Cc1ccc(Cl)cc1)=C(/c1ccc(Cl)cc1)c1ccc(OCCN(C)C)cc1 | 4.49 µM | 8.6 µM | 9.29 µM | 8.74 µM | 3890 nM | 8.78 µM | 7.54 µM | 10.3 µM | 1620 nM | 6.48 µM | 10.5 µM | 1220 nM | 3720 nM | 3030 nM | 4.4 µM | 3450 nM | 5.5 µM | 5420 nM | 4.85 µM | 10 µM
9 | COc1cnc2c(c1)C(=O)c1c-2n(CCCN2CCCC2)c(=O)c2cc(F)ccc12 | 0.3 µM | 0.467 µM | 14.7 µM | 0.663 µM | 311 nM | 1.29 µM | 1.53 µM | 0.755 µM | 531 nM | 7.8 µM | 0.986 µM | 60.3 nM | 116 nM | 153 nM | 0.309 µM | 360 nM | 0.202 µM | 272 nM | 2.49 µM | 1.13 µM
10 | COc1ccc(/C(=N/NC(N)=O)C(c2ccc(OC)cc2)C2C(=O)Oc3ccccc32)cc1 (stereo unspecified) | > 100 µM | > 100 µM | > 100 µM | > 100 µM |  | > 100 µM | > 100 µM | > 100 µM |  | > 100 µM | > 100 µM |  |  |  |  |  |  |  |  | > 100 µM
11 | O=C(c1ccccc1)c1nc2ccc(C(F)(F)F)cc2[n+]([O-])c1C(F)(F)F | > 100 µM | > 100 µM | > 100 µM | > 100 µM | 19000 nM | 48 µM | > 100 µM | > 100 µM | 15100 nM | 78.5 µM | > 100 µM | 23500 nM | 50300 nM | 31300 nM | 17.5 µM | 31800 nM | 19.7 µM | 27400 nM | 58.8 µM | 52.5 µM
12 | O=C(CCCCCCSc1nc(-c2ccc(Cl)cc2)cc(-c2ccc(Cl)cc2)n1)NO | 5.93 µM | 6.08 µM | > 50 µM | 6.05 µM | 1970 nM | 2.74 µM | 2.83 µM | 9.84 µM | 1610 nM | 8.39 µM | 4.19 µM | 1410 nM | 1630 nM | 1450 nM | 1.19 µM | 1070 nM | 2.34 µM | 1320 nM | 2.04 µM | > 50 µM
13 | O=C1c2c(O)cc(O)cc2OC(c2ccc(O)cc2O)C1O (stereo unspecified) | > 100 µM | > 100 µM | > 100 µM | > 100 µM | > 100000 nM | > 100 µM | > 100 µM | > 100 µM | > 100000 nM | > 100 µM | > 100 µM |  | > 100000 nM | > 100000 nM | > 100 µM |  |  | > 100000 nM | > 100 µM | > 100 µM
14 | Cc1c(NC(=O)OC[C@@H]2COCCN2)cn2ncnc(Nc3ccc4c(cnn4Cc4cccc(F)c4)c3)c12 | > 10 µM and 24 µM | > 10 µM and 18.6 µM | > 10 µM and 21.4 µM | > 10 µM and 18.7 µM | 7760 nM and 17500 nM | > 10 µM and 17.4 µM | > 10 µM and 15.3 µM | > 10 µM and 20.6 µM | 1450 nM and 991 nM | > 10 µM and 10.7 µM | > 10 µM and 16.6 µM | > 10000 nM and 6570 nM | 7500 nM and 5160 nM | 7820 nM and 5220 nM | 5.3 µM and 5.56 µM | 2890 nM and 4150 nM | 9.08 µM and 5.67 µM | 1090 nM and 711 nM | > 10 µM and 7.04 µM | > 10 µM and 37 µM
15 | C=C1C(=O)O[C@H]2[C@H]1CC/C(COC(=O)c1ccc(C#N)cc1)=C\CC[C@@]1(C)O[C@@H]21 | 14.5 µM | 10.3 µM | 4.82 µM | 2.77 µM | 1670 nM | 3.75 µM | 2.32 µM | 20.7 µM | 1590 nM | 3.8 µM | 29.2 µM | 3460 nM | 2860 nM | 1420 nM | 1.85 µM | 1030 nM | 8.16 µM | 15800 nM | 2.2 µM | 7.47 µM
16 | COc1cc([C@@H]2c3cc4c(cc3[C@@H](NC(=O)c3cccc(F)c3)C3COC(=O)[C@@H]32)OCO4)cc(OC)c1O (stereo partly specified) | 7.52 µM | 1.94 µM | 56.5 µM | 13.8 µM |  | 12.7 µM | 37.5 µM | 26.8 µM |  | 89.6 µM | 5.78 µM |  |  |  |  |  |  |  |  | 2.3 µM
17 | COc1ccccc1S(=O)(=O)Nc1ccc2c(c1)CN(C)C(=O)N2 | > 100 µM | > 100 µM | > 100 µM | > 100 µM | 1180 nM and 2700 nM | > 100 µM | 28.3 µM and > 60.2 µM | > 100 µM | 2220 nM and 1180 nM | > 51.9 µM and 71.6 µM | > 100 µM | 10600 nM and 13400 nM | 14100 nM and 13200 nM | 4600 nM and 4380 nM | 3.88 µM and 4.42 µM | 4720 nM and 5160 nM | 6.48 µM and 9.42 µM | 4470 nM and 5150 nM | 5.62 µM and 7.41 µM | > 100 µM
18 | CN(C[C@@H]1COCCO1)S(=O)(=O)Nc1ccc2ccc3ncc(-c4cnn(C)c4)cc3c(=O)c2c1 | > 100 µM | > 100 µM | > 100 µM | > 100 µM | 6770 nM | > 100 µM | 6.71 µM | > 34.2 µM | 2250 nM | > 30.3 µM | > 100 µM | 4260 nM | 2340 nM | 3870 nM | 6.42 µM | 1100 nM | 0.632 µM | 3040 nM | > 66.8 µM | > 100 µM
19 | C=C(C)[C@@H]1CC[C@]2(COC3CCCCO3)CC[C@]3(C)[C@H](CC[C@@H]4[C@@]5(C)C=C(C=O)C(=O)C(C)(C)[C@@H]5CC[C@]43C)[C@@H]12 (stereo partly specified) | 4.22 µM | 2.71 µM | 2.2 µM | 2.59 µM | 1560 nM | 2.93 µM | 2.73 µM | 2.96 µM | 1490 nM | 2.89 µM | 3.32 µM | 2020 nM | 1180 nM | 1310 nM | 1.58 µM | 1240 nM | 1.5 µM | 1840 nM | 0.734 µM | 5.37 µM
20 | Nc1c(C(=O)Nc2ccccc2F)sc2nc3c(cc12)C(=O)CCC3 | > 63.1 µM | > 100 µM | > 100 µM | > 100 µM | 2400 nM | > 100 µM | 3.82 µM | > 92.6 µM | 121 nM | > 100 µM | > 100 µM | 541 nM | 1230 nM | 646 nM | 0.382 µM | 738 nM | 0.611 µM | 746 nM | 6.33 µM | > 100 µM
